How the values were obtained:
[1] = tested on: SPX1 phosphate starvation biomarker; experiment: Chemical activity assessment with Arabidopsis pSPX1::GUS reporter line (GUS stained area); assay type: in vivo, Arabidopsis thaliana; details: low phosphate, 50 μM, 7 days after germination; compare with low phosphate controls of same plate (Table 5 c3)
Method: (§1) All Arabidopsis plant experiments were performed using the Arabidopsis thaliana Columbia-0 background. The Arabidopsis pSPX1::GUS line is described in the Plant Journal 2008, 54: 965-975. For rice, the cultivar Nipponbare was used. For maize, the cultivars DKC 2931 and B104 were used for regular pot experiments and sand-based pot experiments, respectively. For soybean, the cultivar Primus was used. […] The medium was solidified due to the addition of 0.6% Gelrite, unless stated otherwise. In case of vertical plates (root length and root hair measurements), the medium was supplied with 0.5% of sucrose and 1 μM (low phosphate, 1 μM KH2PO4, 9.9 mM KCl), 10 μM (low phosphate 10 μM KH2PO4, 9.9 mM KCl) or 1.25 mM KH2PO4 (high phosphate). Arabidopsis seeds were stratified for 2 days at 4° C. before germination. Seedlings were germinated in climate-controlled growth chambers at 22° C. under continuous light (100 μmol m^−2 s^−1). Husked rice seeds were germinated on wetted Whatman paper for 2 days at 37° C. and then transferred to Sterivent boxes or square Petri dishes with solid medium. Maize and soybean seeds were wetted 24 hours at room temperature prior to sowing in pots.
For the chemical activity assessment 3 to 8 seeds per well of Arabidopsis pSPX1::GUS line were sown in 96-well plates containing 150 μl of low phosphate modMS liquid medium containing 1% of sucrose. Compounds were added in 50 μM concentration, starting from a 5 mM stock of compounds solved in DMSO. Different chemical substances were separately added to different wells. Per plate, 16 control wells were used, 8 containing only the low phosphate medium and 1% DMSO, and 8 containing high phosphate medium and 1% DMSO. 7 days after germination, plates were scanned using a flatbed scanner (EPSON Expression 11000XL) and analyzed for leaf size. After scanning, the growth medium was replaced by GUS staining solution (see Plant Mol. Biol. Rep. 1994, 12: 37-42 for details) and incubated for 1.5 hours at 37° C. The plates were scanned a second time and analyzed for GUS signal area. Measurements of both leaf area and GUS signal area were conducted by filtering out and measure the green and blue signal, respectively using ImageJ software. If the green leaf area was 50% or less than the control, samples were omitted. Additionally, all results were visually screened for leaf size and GUS signal.

Arabidopsis root hairs = experiment: Root hair number and length quantification; assay type: in vivo, Arabidopsis thaliana; details: Arabidopsis thaliana, read-out: Total root hair length per root (in % compared to the control)
Method: as §1
Roots were imaged using a stereomicroscope or a VHX-6000. Number and length of the root hairs parallel to the medium surface was determined at 4 to 6 mm above the root meristem. Root hair length was measured using the ImageJ software.

Maize = Maize growth experiment in pots with mixture of unfertilized potting soil and sand (leaf 5); assay type: in vivo
Method: For a subset of compounds, we performed a more extensive analysis on their root hair inducing effect in a dose-response experiment (Table 3). This confirms that the more simple structures 8.14 and 8.14.6 still retain the activity of compound 8. […] To validate this, we performed a maize growth experiment using compound 8 and the, based on the increase of total root hair length, stronger variant 8.14.6. The experiment was conducted in pots with a mixture of unfertilized potting soil and sand, and leaf 5 was measured after 29 days (Table 4).

Row | SMILES | GUS (SPX1) stained area normalized to the number of seeds [1] [pixels] | activity at 0.6 µM (Arabidopsis root hairs) [%] | activity at 1.25 µM (Arabidopsis root hairs) [%] | also measured
1 | O=C(CN1CC(C(=O)N2CCCCC2)Oc2ccccc21)N1CC=C(c2ccccc2)CC1 (centres unmarked) [Compound 8.14.1] | 22 |  |  | 
2 | CN(Cc1ccc(Br)s1)C(=O)CN1C(=O)CCOc2ccccc21 [Compound 8.14.2] | 39 |  |  | 
3 | CC(C)(C)c1csc(NC(=O)CN2C(=O)COc3ccccc32)n1 [Compound 8.14.4] | 46 |  |  | 
4 | COc1ccc([N+](=O)[O-])cc1NCC(=O)N1CCCC1c1cccs1 (centres unmarked) [Compound 8.14.5] | 93 |  |  | 
5 | COc1ccc(C)cc1NCC(N)=O [Compound 8.14.6] | 2 | 231 | 592 | Growth-promoting effect on maize versus compound 8 (Maize; leaf 5 after 29 days): even a stronger growth-promoting effect; Leaf 5 (Maize; maize, pots with unfertilized potting soil and sand, after 29 days, control 38.1): 41.8 cm
6 | Cc1ccc2c(c1)OC(C)CN2CC(N)=O (centres unmarked) [Compound 8.14] | 2 | 231 | 343 | activity at 2.5 µM (Arabidopsis root hairs; 2.5 μM): 493%; activity at 5 µM (Arabidopsis root hairs; 5 μM): 803%
